# “And” between values parts separate entries of the source, which are not always exact repeats. Equal values may be shown once. Read-outs that look alike come from different tables or passages of the source.
# How the values were obtained:
# Syrian Golden hamsters = experiment: In vivo serum cholesterol lowering in hamsters fed a cholesterol test diet; settings: hamsters; for inhibition in vivo at 100 mg/kg/day: Mesocricetus auratus, feed or water, 168 h, read-out: Percent Lowering of Cholesterol from Control Value Mean; for inhibition in vivo at 100 mg/kg/day / Percent Lowering of Cholesterol from Control Value Mean: 0.2% (w/w) in diet for one week (100 mg/kg/day), negative values = serum cholesterol increased relative to control; for Serum Cholesterol Mean: 0.2% (w/w) in Cholesterol Test Diet for one week, equivalent to 100 mg/kg/day, groups of six, control mean 337
# Description: Syrian Golden hamsters were fed a cholesterol test diet made of 10% coconut oil and 0.12% cholesterol (by weight) in Purina 5001 Rodent Chow to induce hypercholesteriolemia.
# After two weeks on the cholesterol test diet the hamsters were bled from the orbital sinium under light CO2 anesthesia. Serum was prepared and analyzed for cholesterol using a commercial test kit (Cholesterol High Performance, Single Vial™, product of Boehringer Mannheim Corp., Indianapolis, IN, USA). The hamsters were separated into groups of six animals, such that each group had approximately the same mean serum cholesterol levels. Selected compounds of the invention were incorporated into the Cholesterol Test Diet at 0.2% (w/w) and fed to the hamsters for one week. A control group of hamsters continued on the Cholesterol Test Diet during the same one-week period. The dose of test compounds of the invention was equivalent to 100 mg/kg/day based on the weight of the hamsters and their diet consumption. Upon completion of the test period, the animals were bled and serum cholesterol determined as above.
# Mean serum cholesterol values from the test hamsters were compared to values from the control group and tested for significance at the Z.05 level using Dunnett's test.
# [1] = system: human LDL receptor promoter; experiment: in vitro Luciferase Activity Test (LDL receptor promoter-luciferase reporter in recombinant CHO cells); type: cell-based; parameters: MED: unit not given here; settings: for Emax: Homo sapiens, CHO, read-out: MA%; for Emax / MA%: maximum activity (%) over control; for MED: minimum effective dose (molar concentration, unit not given), 24 hr, assay medium with 0.5 µg/ml 25-hydroxycholesterol; for RED: relative effective dose compared to compound of Example 4, below one = more active
# Description: A 1546 base pair sequence of the human LDL receptor promoter was amplified using the polymerase chain reaction. A reaction mixture containing 20 pMoles each of the synthetic oligonucleotides 5'-[…]-3' (Seq. I.D. No: 1) and 5'-AAG-[…]-3', (Seq. I.D. No:2) 1 µg human genomic DNA purified from the adenocarcinoma cell line P3UCLA, 200 µM each of dATP, dGTP, dCTP, and TTP, 2.5 units of Taq DNA polymerase, 10mM Tris-HCI pH 8.3, 50 mM KCI, […], 0.1% gelatin in a final volume of 100 µl was subjected to 30 cycles of 15 sec at 96°C, 30 sec at 55°C, and 1 min at 72°C. The material was subject to gel electrophoresis on a 1% agarose gel and the 1546 base pair band was isolated and restriction enzyme digested with Hind III and Nde I. This fragment was ligated into the plasmid pSP72 (ProMega Biotech), which had previously been restriction enzyme nuclease digested with Hind III and Nde I. The resulting vector, pNLDLRP, was restriction endonulease digested with Ndel and Hind III and the material was again run on a 1% agarose gel to reisolate the 1546 bp LDL receptor sequence.
# Plasmid vector PSv2 was constructed by digesting plasmid pSv2-globin with Hind III and Bgl II then ligating an Nrul-Xhol linker into the vector. Plasmid pSv2 globin is disclosed in U.S. Patent No. 4,775,624, the entire teaching of which is herein incorporated by reference. The linker contained the following sequences: [formula] (Seq. I.D. No: 3), and [formula] ' (Seq. I.D. No:4).
# The resulting vector was designated pSv2-H NXB because it contained a […], an Nrul site, an Xhol site and a Bgl site. The Hind III-Bgl II fragment of plasmid pAlc4(NRRL B-18783), which contains the firefly luciferase gene, was then ligated into the Hin III-Bgl site of plasmid pSv2-HNXB. A neomycin resistance-conforming gene was then ligated into the Bam HI site of the resultant plasmid to form plasmid pSv2.
# A 1546 base pair fragment was isolated and cloned into a Ndel and Hind III (partial) restriction digested vector pSv2 containing the firefly luciferase reporter gene and a gene for neomycin resistance. The resulting vector, pLDL-Luc1 Neo-10, contains the human LDL receptor promoter driving expression of the firefly luciferase gene, a gene coding for neomycin resistance, ampicillin resistant marker and an origin of replication.
# Plasmid pLDL-Luc 1 Neo-10 was used to stably transfect Chinese Hamster Ovary cells using a Lipofection Reagent kit and procedure from Gibco BRL Research Products Division Life Technologies Inc. Transformants were selected by picking individual colonies grown in Dulbecco's modified Eagle's medium supplimented with 10% fetal bovine serum and containing 500 µg per ml […]. […] Clone S27/B30 was used for subsequent screening.
# In developing a cell based screen it is important to have a negative control. The viral SV40 promoter is ideal for this purpose in that it has a number of SP1 elements that enhance gene transcription. These elements are not under the control of end product repression; but they do have a high degree of sequence homology with the 16 base pair long sterol response element found in the LDL receptor promoter. The SV40 promoter should therefore be a sensitive mechanism to screen out agents that induce nonspecific transcription.
# Chinese Hamster Ovary cells were stably cotransfected with a vector pSV2AL-A 5' containing the SV40 promoter driving expression of the firefly luciferase gene and a second vector pSV2 NeoBam containing a neomycin resistant marker. Transfections were carried out using the Lipofectin Reagent kit and procedure from Gibco BRL Research Products Division Life Technologies Inc. Transformants were selected by picking individual colonies grown in Dulbecco's modified Eagle's medium supplemented with 10% fetal bovine serum and containing 500 µg per ml of geneticin. Individual clones were selected, lysed and assayed for luciferase production. […]
# [2] = NA is not active, 30% luciferase activity cutoff point (footnote 1)
# [3] = tests using 30% luciferase activity cutoff point (footnote 1)
# [4] = 30% luciferase activity cutoff point (footnote 1)
# [5] = 15% luciferase activity cutoff point (footnote 2)
# [6] = tests using 15% luciferase activity cutoff point (footnote 2)
Compound,inhibition in vivo at 100 mg/kg/day (Syrian Golden hamsters) [%],Serum Cholesterol Mean (Syrian Golden hamsters) [mg/dL],"Emax [1, 2] [%]","MED [1, 3]","RED [1, 4]","Emax [1, 5] [%]","MA% [1, 5]","MA% [1, 2]","MED [1, 6]","RED [1, 5]",Percent Lowering of Cholesterol from Control Value Mean (Syrian Golden hamsters) [%]
"C/C=C/C[C@@H]1[C@H](O)CC[C@@]2(C)[C@H]1CC[C@@H]1[C@@H]2CC[C@]2(C)[C@@H]([C@H](C)CCCC(C)C)CC[C@@H]12 [Example 4, [4a(E),5a]-4-(2-butenyl)cholestan-3a-ol]",37.8,210,80,2.2,1.00,,,,,,
"CC(C)CCC[C@@H](C)[C@H]1CC[C@H]2[C@@H]3CCC4[C@H](Cc5ccc(F)cc5)[C@H](O)CC[C@]4(C)[C@H]3CC[C@]12C (stereo partly shown) [Example 23, 4a-(4-fluorobenzyl)cholestan-3a-ol]",46.3,181,,,,49,37%,,,,
"CC(C)CCC[C@@H](C)[C@H]1CC[C@H]2[C@@H]3CCC4[C@H](Cc5ccc(I)cc5)[C@H](O)CC[C@]4(C)[C@H]3CC[C@]12C (stereo partly shown) [Example 25, 4a-(4-iodobenzyl)cholestan-3a-ol]",28.8,240,,,,,89% and 64% and 79%,,,,
"CC(C)CCC[C@@H](C)[C@H]1CC[C@H]2[C@@H]3CCC4[C@H](Cc5ccc(OC(F)(F)F)cc5)[C@H](O)CC[C@]4(C)[C@H]3CC[C@]12C (stereo partly shown) [Example 30, 4a-(4-trifluoromethoxybenzyl)cholestan-3a-ol]",38,209,,17.3 and 8.9,,76,,65% and 92%,8.9,3.2,
"CC(C)CCC[C@@H](C)[C@H]1CC[C@H]2[C@@H]3CCC4[C@H](Cc5ccc(O)cc5)[C@H](O)CC[C@]4(C)[C@H]3CC[C@]12C (stereo partly shown) [Example 36, 4a-(4-hydroxybenzyl)cholestan-3a-ol]",22.6,261,,,,20,,,40,17.6,
"C=CC[C@H]1C2CC[C@@H]3[C@H](CC[C@]4(C)C(OCCCC(C)C)CC[C@@H]34)[C@@]2(C)CC[C@H]1O (stereo partly drawn) [Example 66, (3α,4α)-17-[(4-methylpentyl)oxy]-4-(2-propenyl)androstan-3-ol]",30.7,234,,,,,,73% and 100% and 105% and 118%,,,
"C=CC[C@H]1C2CC[C@@H]3[C@H](CC[C@]4(C)C(OCc5ccccc5)CC[C@@H]34)[C@@]2(C)CC[C@H]1O (stereo partly drawn) [Example 68, (3α,4α)-17-(phenylmethoxy)-4-(2-propenyl)androstan-3-ol]",8.6,309,42,,,,,33% and 39%,,,
"C=CC[C@@H]1C[C@@]2(C)[C@@H](CC[C@@H]3[C@@H]2CC[C@]2(C)[C@@H]([C@H](C)CCCC(C)C)CC[C@@H]32)C[C@@H]1O [Example 77, (2a, 3a, 5a)-2-(2-propenyl)cholestan-3-ol]",38,209,60,40.8,4.6,,,,,,
"C=CC[C@@H]1[C@H](NC(C)=O)CC[C@@]2(C)[C@H]1CC[C@@H]1[C@@H]2CC[C@]2(C)[C@@H]([C@H](C)CCCC(C)C)CC[C@@H]12 [Example 81, N-[(3α,4α,5α,20β)-4-(2-propenyl)cholestan-3-61]acetamide]",-7.8,364,32,44.9,7.9,,,,,,
C=CC[C@@H]1[C@H](N)CC[C@@]2(C)[C@H]1CC[C@@H]1[C@@H]2CC[C@]2(C)[C@@H]([C@H](C)CCCC(C)C)CC[C@@H]12 [Example 86],-37.4,464,89,5.6,2.0,,,,,,
CCC[C@@H]1[C@H](O)CC[C@@]2(C)[C@H]1CC[C@@H]1[C@@H]2CC[C@]2(C)[C@@H]([C@H](C)CCCC(C)C)CC[C@@H]12 [Example 87],31.2,222,14,23.2,8.3,,,,,,
"C=CC[C@@H]1[C@H](OC(=O)CCCCCCCCCCCCCCCCC)CC[C@@]2(C)[C@H]1CC[C@@H]1[C@@H]2CC[C@]2(C)[C@@H]([C@H](C)CCCC(C)C)CC[C@@H]12 [Example 99, (3a,4a,5a)-4-(2-propenyl)cholestan-3-ol octadecanoate (ester)]",,328,,,,,,,,,2.7
"(3β,4α,5α,20β)-4-(2-propenyl)cholestan-3-amine [(22)]",,345,,,,,,,,,-2.4
